Assays:
[1] = Nephrotoxicity of non-deuterated D-serine at 300 mg/kg PO: clinical chemistry and urine (Example 2); assay type: in vivo, Male Sprague-Dawley Rats
Protocol: The hippocampus, cortex and plasma were collected and analyzed. Additional blood was collected and were analyzed for the full clinical chemistry profile. Urine was also collected and examined for glucose and total protein. […] The mean plasma, hippocampus, and cortex concentration at 1 hour are 19200 ng/mL, 674 ng/g, and 754 ng/g; respectively. The mean plasma, hippocampus, and cortex concentrations at 8 hours were 11250 ng/mL, 17725 ng/g, and 11875 ng/g, respectively. […] Blood urea nitrogen and creatinine levels were elevated.

[2] = Nephrotoxicity of Compound 100 and non-deuterated D-serine at 150 mg/kg PO (Example 3); assay type: in vivo, male Sprague-Dawley Rats
Description: (§1) The pharmacokinetic profile of Compound 100 was investigated in male Sprague-Dawley rats compared with that of non-deuterated D-serine. […] Plasma was collected and analyzed for Compound 100 and non-deuterated D-Serine. Additional blood was collected and analyzed for the full clinical chemistry profile.

[3] = Nephrotoxicity comparison, dose escalation 150 mg/kg to 750 mg/kg PO (Example 3, FIGS. 7-10); assay type: in vivo, rats; settings: for BUN / Creatinine: PO doses from 150 mg/kg to 750 mg/kg
[4] = Pharmacokinetics dose response of non-deuterated D-serine, 30-300 mg/kg PO (Example 4); assay type: in vivo, male Sprague-Dawley rats
Description: (§2) The pharmacokinetic profile of non-deuterated D-serine was investigated in male Sprague-Dawley rats. […] Plasma was collected and analyzed for the non-deuterated D-serine. Additional blood was collected and analyzed for the full clinical chemistry profile.

[5] = Nephrotoxicity dose response of non-deuterated D-serine, 30-300 mg/kg PO (Example 4); assay type: in vivo, male Sprague-Dawley Rats; settings: 24 hr samples at the 150 and 300 mg/kg doses, compared to control and reference values
Description: as §2

[6] = target: T1, human NMDAR subunits GluN1 and GluN2A (Homo sapiens, UniProt Q05586); assay: Automated patch clamp (ScreenPatch) NMDA receptor activation in HEK293 cells; assay type: cell-based; settings: 0.003 to 10 μM
T1 construct: expressed in transfected cells; host or cells: HEK293
Protocol: Peak current and steady state current were measured. The activity at the NMDA receptor was indistinguishable for the two compounds.

[7] = Pharmacokinetic profile of Compound 100 vs non-deuterated D-serine, single 150 mg/kg PO dose (Example 3); assay type: in vivo, male Sprague-Dawley rats
Description: as §1

[8] = Pharmacokinetics of deuterated and non-deuterated D-serine, PO 10 mg/kg (Example 5); assay type: in vivo, male Sprague Dawley rats
Protocol: Three rats were used for each group. Blood was collected at the following time points: for IV dosing: pre-dose, 0.05, 0.167, 0.5, 1, 2, 4, 6, 8 and 12 hours post-dose; for PO dosing: pre-dose, 0.25, 0.5, 1, 2, 4, 6, 8 and 12 hours post-dose PO. Urine was collected at pre-dose (minimum 12 hours), 0-6, 6-12 and 12-24 hours. Plasma samples were analyzed and quantified for dosed compound LC-MS/MS.

[9] = serum, D-serine at 24 hr, Compound 100 at 4, 8 and 24 hours
[10] = dose escalation 150 mg/kg to 750 mg/kg

With `N[C@H](CO)C(=O)O` [Non-deuterated D-Serine, D-serine] the “Blood urea nitrogen level” value [1] was “elevated”, the Creatinine level [1] was “elevated” and the Glucose in urine [1] was “observed”. The “Levels of biomarkers of nephrotoxicity” value [2] was “caused an increase”, the “Blood urea nitrogen (BUN) level” value ([2]; serum, D-serine at 8 hr and 24 hr, Compound 100 at 4, 8 and 24 hours) was “Elevated” and the Creatinine level [2, 9] was “Elevated”. The “Gamma glutamyl transferase (GGT) level” value [2, 9] was “Elevated”, the BUN [3] was “increasingly elevated levels” and the Creatinine [3] was “increasingly elevated levels”. For the same compound, the “Gross signs of nephrotoxicity” value [3, 10] was “observed”, the “AUCinf, multiple of the 30 mg/kg value” ([4]; 75 mg/kg PO (2.5× dose)) was 2.9× and the “Cmax, multiple of the 30 mg/kg value” ([4]; 75 mg/kg PO (2.5× dose)) was 2.2×. The “AUCinf, multiple of the 30 mg/kg value” ([4]; 100 mg/kg PO (3.3× dose)) was 4.9×, the “Cmax, multiple of the 30 mg/kg value” ([4]; 100 mg/kg PO (3.3× dose)) was 4.0× and the “AUCinf, multiple of the 30 mg/kg value” ([4]; 150 mg/kg PO (5× dose)) was 6.9×. The “Cmax, multiple of the 30 mg/kg value” ([4]; 150 mg/kg PO (5× dose)) was 7.4×, the “AUCinf, multiple of the 30 mg/kg value” ([4]; 300 mg/kg PO (10× dose)) was 18× and the “Cmax, multiple of the 30 mg/kg value” ([4]; 300 mg/kg PO (10× dose)) was 10.7×. For the same compound, the Tmax ([4]; plasma, 150 mg/kg PO) was 18 min, the Creatine level [5] was “Elevated” and the “Gamma glutamyl transferase (GGT) level” value [5] was “Elevated”. The Urea nitrogen level [5] was “Elevated” and the “Activity at the NMDA receptor (peak current and steady state current)” value [6] was “indistinguishable”.

For `[2H][C@@](N)(CO)C(=O)O` [Compound 100, (2R)-2-amino-2-deutero-3-hydroxy-propanoic acid], the “Cmax and AUCinf compared with non-deuterated D-serine” value [7] was “similar”, the “Levels of biomarkers of nephrotoxicity” value [2] was “did not increase” and the BUN [3] was “minimal changes”. For the same compound, the Creatinine [3] was “minimal changes”, the “Exposure as measured by AUC and Cmax, compared with non-deuterated D-serine” value [3, 10] was “greater” and the “Gross signs of nephrotoxicity” value [3, 10] was “not”. For the same compound, the “Tmax compared with non-deuterated D-serine” value [8] was “similar” and the “Activity at the NMDA receptor (peak current and steady state current)” value [6] was “indistinguishable”.

Source: patent US20220218641A1 (Concert Pharmaceuticals, Inc., priority 2019, published 2022)
